Reference: patent US20080312192A1, “Diaryl Urea Derivatives in the Treatment of Protein Kinase Dependent Diseases” (priority 2003, published 2008)

What was measured:
[1] = target: T1, RET (Homo sapiens, UniProt P07949); assay: RET kinase inhibition (33P incorporation into poly(Glu,Tyr), GST-wtRET or GST-RET-Men2B); type: biochemical
T1 construct: expresses the amino acid region 658-1072 (Swiss prot No. Q9BTB0); made in house; host or cells: Sf9 insect cells (baculovirus, vector pFB-GSTX3)
T1 sequence (P07949 658-1072 isoform P07949-2): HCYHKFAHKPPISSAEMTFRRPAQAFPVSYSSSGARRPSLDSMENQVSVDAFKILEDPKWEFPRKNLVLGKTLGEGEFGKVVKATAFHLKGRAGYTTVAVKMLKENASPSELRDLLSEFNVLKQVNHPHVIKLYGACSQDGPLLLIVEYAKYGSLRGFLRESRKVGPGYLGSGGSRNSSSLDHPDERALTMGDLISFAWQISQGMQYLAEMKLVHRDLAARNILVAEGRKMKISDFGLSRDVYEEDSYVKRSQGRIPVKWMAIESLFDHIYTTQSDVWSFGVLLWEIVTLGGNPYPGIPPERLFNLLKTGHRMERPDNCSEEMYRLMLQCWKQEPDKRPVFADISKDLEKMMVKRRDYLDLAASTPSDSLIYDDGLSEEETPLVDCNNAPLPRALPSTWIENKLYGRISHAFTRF
Method: RET kinase inhibition is determined as follows:
The coding sequence for the cytoplasmic domain of wtRET is amplified by PCR from a cDNA library using specific primers. RET-Men2B is generated through site-directed mutagenesis resulting in the M918T mutation. The amplified DNA fragments and the pFB-GSTX3 vector are made compatible for ligation by digestion with SalI and KpnI. Ligation of these DNA fragments results in the baculovirus donor plasmids […] and pFB-GX3-RET-Men2B, respectively.
Production of virus: The baculovirus donor plasmids containing the kinase domains are transfected into the DH10Bac cell line (GIBCO) and the transfected cells are plated on selective agar plates. Colonies without insertion of the fusion sequence into the viral genome (carried by the bacteria) are blue. Single, white colonies are picked and viral DNA (bacmid) is isolated from the bacteria by standard plasmid purification procedures. Sf9 cells or Sf21 cells (American Type Culture Collection) are then transfected in 25 cm^2 flasks with the viral DNA using Cellfectin reagent.
Protein expression in Sf9 cells: Virus-containing media is collected from the transfected cell culture and used for infection to increase its titer. Virus-containing media obtained after two rounds of infection is used for large-scale protein expression. For large-scale protein expression 100 cm^2 round tissue culture plates are seeded with 5×10^7 cells/plate and infected with 1 mL of virus-containing media (approximately 5 MOIs). After 3 days, the cells are scraped off the plate and centrifuged at 500 rpm for 5 minutes. Cell pellets from 10-20, 100 cm^2 plates are re-suspended in 50 mL of ice-cold lysis buffer (25 mM Tris-HCl, pH 7.5, 2 mM EDTA, 1% NP-40, 1 mM DTT, 1 mM PMSF). The cells are stirred on ice for 15 minutes and then centrifuged at 5,000 rpms for 20 minutes.
Purification of GST-tagged proteins: The centrifuged cell lysate is loaded onto a 2 mL glutathione-sepharose column (Pharmacia) and washed 3× with 10 mL of 25 mM Tris-HCl, pH 7.5, 2 mM EDTA, 1 mM DTT, 200 mM NaCl. The GST-tagged proteins are then eluted by 10 applications (1 mL each) of 25 mM Tris-HCl, pH 7.5, 10 mM reduced-glutathione, 100 mM NaCl, 1 mM DTT, 10% glycerol and stored at −70° C.
Measure of enzyme activity: Tyrosine protein kinase assays with either purified GST-wtRET or GST-RET-Men2B protein are carried out in a final volume of 30 μL containing 15 ng of either GST-RET or GST-RET-Men2B protein, 20 mM Tris-HCl, pH 7.5, 1 mM MnCl2, 10 mM MgCl2, 1 mM DTT, 3 μg/mL poly(Glu, Tyr) 4:1, 1% DMSO, 2.0 μM ATP (γ-[^33P]-ATP 0.1 μCi). The activity is assayed in the presence or absence of inhibitors, by measuring the incorporation of ^33P from [γ^33P] ATP into poly(Glu, Tyr) 4:1. […] Subsequently, 40 μL of the reaction mixture are transferred onto Immobilon-PVDF membrane (Millipore) previously soaked for 5 minutes with methanol, rinsed with water, then soaked for 5 minutes with 0.5% H3PO4 and mounted on vacuum manifold with disconnected vacuum source. After spotting all samples, vacuum is connected and each well rinsed with 200 μL 0.5% H3PO4. Membranes are removed and washed 4× on a shaker with 1.0% H3PO4, once with ethanol. Membranes are counted after drying at ambient temperature, mounting in Packard TopCount 96-well frame, and addition of 10 μl/well of Microscint™ (Packard). […] One unit of protein kinase activity is defined as 1 nmole of ^33P transferred from [γ^33P] ATP to the substrate protein/minute/mg of protein at 37° C.

[2] = test system: ITD-Ba/F3; details: Mus musculus, BaF3, 48 h, read-out: Inhibition of Flt-3 dependent Proliferation (ED50) ITD-mutant
Method: (§1) Inhibition of Proliferation in Flt-3 Dependent Ba/F3 Cells:
(§2) The compound's potential to penetrate cell membranes and exert antiproliferative effects is determined in Ba/F3 cells dependent on mutated [ITD or D835Y; Gilliland and Griffin, Blood, Vol. 100, No. 5, 153242 (2002)] Flt-3 receptor kinases.
(§3) A modified protocol of the YO-PRO-1 assay in a 96-well format is based on the use of the wild-type IL-3-dependent hematopoietic cell line Ba/F3 (DSMZ, Braunschweig, Germany) and the mutant sub-lines ITD-Ba/F3 or D835Y-Ba/F3 [Weisberg et al., Cancer Cell 1 (5):433-43 (2000)] expressing constitutively activating Flt-3 kinases.
(§4) ITD-FLT3- or D835Y-FLT3-Ba/F3 cells are diluted in fresh medium to a final concentration of 3×10^5 cells per ml and 50 μl aliquots seeded into 96-well plates (1.5×10^4 cells per well). Subsequently, 50 μl 2× compound solutions were added and cells incubated for 48 h. The anti-proliferative and apoptotic activity of a compound is initially tested in triplicates at 10 μM, 1 μM and 0.1 μM concentration on both cell lines. Cells treated with DMSO alone (added to a final concentration of 0.1%) always serves as a control. In addition, a plate blank value is routinely determined in a well containing only 100 μl of medium and no cells.
(§5) To further profile a compound an ED50 determination is done starting at 10 μM or 3 μM of the compound of interest. From those concentrations, stepwise nine dilutions are prepared reaching the final concentrations of 2 μM and 0.5 μM, respectively.
(§6) Activity of inhibitors is assessed by the YO-PRO-1 assay as previously described in [Idziorek et al., J. Immunol. […] Briefly, after the treatment period of 48 h, a 25 μl aliquot of a solution containing 100 mM sodium citrate, pH 4.0, 134 mM sodium chloride and 12.5 μM YO-PRO-1 dye (YO-PRO-1 iodide, #Y3603, Molecular Probes) is directly added to the 100 μl medium in the wells of the 96-well plate. That results in a final dye concentration of 2.5 μM, the plate is then incubated for 10 min at ambient temperature in the dark. The uptake of the YO-PRO-1 dye into cells is assessed by a first measurement using a Cytofluor II 96-well plate reader (PerSeptive Biosystems) with the following settings: Excitation (nm) 485120 and Emission (nm) 530/25, Gain 75. After this first reading, 25 μl of lysis buffer consisting of 20 mM sodium citrate, pH 4.0, 26.8 mM sodium chloride, 0.4% NP40, 20 mM EDTA and 20 mM is added to each well. Cell lysis is completed within 60 min at room temperature and total amount of YO-PRO-1 bound to DNA is determined by a second measurement using the Cytofluor II 96-well reader with the identical setting as described above.

[3] = test system: D835Y-Ba/F3; details: Mus musculus, BaF3, 48 h, read-out: Inhibition of Flt-3 dependent Proliferation (ED50) D835-mutant
Method: as §1, §2, §3, §4, §5, §6

IC50 [1] [nM] | EC50 [2] [nM] | EC50 [3] [nM] | SMILES
400 | < 0.2 | 0.5 | CC(C)N1CCN(Cc2ccc(NC(=O)Nc3ccc(Oc4ccnc(N)n4)cc3)cc2C(F)(F)F)CC1 [Example 45, N-[4-(2-Amino-pyrimidin-4-yloxy)-phenyl]-N′-[4-(4-isopropylpiperazin-1-ylmethyl)-3-trifluoromethyl-phenyl]-urea]
350 | 0.1 | 3.3 | CCN1CCN(Cc2ccc(NC(=O)Nc3ccc(Oc4ccnc(NC)n4)cc3)cc2C(F)(F)F)CC1 [Example 53c, 1-[4-(4-Ethyl-piperazin-1-ylmethyl)-3-trifluoromethyl-phenyl]-3-[4-(2-methylamino-pyrimidin-4-yloxy)-phenyl]-urea]
